Experimental data: paper PMC9090415, “Discovery of small molecule inhibitors of Plasmodium falciparum apicoplast DNA polymerase” (Journal of Enzyme Inhibition and Medicinal Chemistry, 2022)
Read-outs that look alike come from different tables or passages of the source.

Key:
[1] = biological target: P. falciparum apicoplast DNA polymerase (Pf-apPOL) (Plasmodium falciparum, UniProt Q8ILY1); experiment: Fluorescence-based high-throughput DNA polymerase assay (molecular beacon), primary screen and dose-response; assay type: biochemical
Method in brief: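 Single-point screening used 10 µM compound with 20 nM polymerase, 20 nM hairpin substrate and 6 µM dNTPs for 90 min at 25 °C. Confirmatory titrations (2.5–80 µM) followed fluorescence at three times, and IC50 was derived from a fit including a cooperativity term n.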

[2] = tested on: chloroquine resistant P. falciparum parasites (strain Dd2); experiment: Parasite growth inhibition assay in human red blood cells (flow cytometry, acridine orange); assay type: cell-based; settings: Plasmodium falciparum, Erythrocyte
Description: The chloroquine resistant P. falciparum parasites (strain Dd2) were cultured in de-identified, IRB-exempt human red blood cells (RBCs) obtained from the American Red Cross and parasite cultures were maintained as described. Parasitaemia (percentage of total RBCs infected) was measured by flow cytometry on an Attune NxT (ThermoFisher) by nucleic-acid staining of cultured RBCs with phosphate-buffered saline (PBS) containing 0.8 µg ml^−1 acridine orange. We began by determining percent growth inhibition at single compound dose (20 µM) for the 102 non-toxic compounds. […] The experiments were initiated with a starting parasitaemia of ∼1% and parasitaemia was measured 72 and 96 h post compound addition. Growth was normalised to parasite cultures with carrier only (DMSO).
(§1) We tested the ability of the 102 compounds to kill P. falciparum parasites cultured in human red blood cells. Due to the number of compounds, we used a single inhibitor concentration of 20 µM and performed experiments in triplicate. […] These compounds were then tested in a dose-response format against chloroquine resistant P. falciparum parasites (Dd2) and the resulting data were fit to a sigmoidal growth inhibition curve to determine EC50 values (Figure 5, Table 2). […] Finally, to determine if the compounds were killing the parasites solely via apicoplast disruption, the dose-response curves were also performed with 1 mM isopentylpyrophosphate (IPP) in the growth media (Table 2). […] Very little is known regarding mitochondrial DNA replication in P. falciparum; however, signal sequence identification algorithms have predicted that the other bacterial A-family DNA polymerase residing in P. falciparum is targeted to the mitochondria (PF3D7_0625300)[29]. […] We are currently in the process of cloning and expressing this putative mitochondrial DNA polymerase to determine the effect of these compounds on its activity.

[3] = biological target: T1, P. berghei apicoplast DNA polymerase (Pb-apPOL) (Plasmodium berghei, UniProt A0A509ALK1); experiment: In vitro DNA polymerase inhibition assay, Pb-apPOL; assay type: biochemical; settings: Table 2
T1 sequence (A0A509ALK1 1182-1809): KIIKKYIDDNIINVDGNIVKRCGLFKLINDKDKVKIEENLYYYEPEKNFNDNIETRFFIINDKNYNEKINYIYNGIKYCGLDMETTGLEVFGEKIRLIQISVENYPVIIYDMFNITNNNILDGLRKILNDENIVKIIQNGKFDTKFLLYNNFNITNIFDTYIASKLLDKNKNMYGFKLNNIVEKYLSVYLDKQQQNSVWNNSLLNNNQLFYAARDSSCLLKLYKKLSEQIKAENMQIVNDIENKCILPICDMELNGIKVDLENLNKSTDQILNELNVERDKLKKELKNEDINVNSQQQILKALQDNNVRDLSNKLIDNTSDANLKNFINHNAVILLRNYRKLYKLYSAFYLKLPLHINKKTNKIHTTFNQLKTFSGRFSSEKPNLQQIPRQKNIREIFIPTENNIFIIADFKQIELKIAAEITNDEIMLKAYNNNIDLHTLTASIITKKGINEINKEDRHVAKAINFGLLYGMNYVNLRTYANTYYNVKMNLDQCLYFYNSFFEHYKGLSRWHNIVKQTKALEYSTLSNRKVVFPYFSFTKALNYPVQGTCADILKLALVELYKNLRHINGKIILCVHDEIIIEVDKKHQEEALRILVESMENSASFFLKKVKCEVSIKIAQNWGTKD
Description: (§2) Codon-optimized, exonuclease-deficient Pf-apPOL was overexpressed in E. coli BL21 (DE3) and purified as described. The protein was dialysed against two, 1-liter changes of 20 mM Tris-HCl (pH 8.0), 400 mM NaCl, and 20% glycerol. Plasmodium bergei and Babesia bovis apPOLs (Pb-apPOL and Bb-apPOL, respectively) were codon-optimized, expressed, and purified as for Pf-apPOL[15]. Bacteriophage T4 DNA polymerase was purified as described. The DNA oligonucleotides used to make the high-throughput substrate were obtained from Integrated DNA Technologies. Deoxynucleotides were purchased from Strategene. All other materials came from Fisher Scientific.
The HT assay employs a molecular beacon, a stem-loop DNA template with a Cy3 dye and the Black Hole Quencher on the 3′ and 5′ ends of the DNA, respectively. Pf-apPOL concentration is based on a calculated absorptivity of ε280 = 56750 M^−1 cm^−1. Reactions were carried out at 25 °C, using Corning 3575 […] (well-volume, 20 µL). Assays testing for compound inhibition composed of reaction buffer (pH 7.9 in 50 mM potassium acetate, 20 mM Tris-acetate and 10 mM magnesium acetate), Pf-apPOL (20 nM), DNA substrate (20 nM), dNTPs (6 µM), and compound (10 µM in DMSO). The DNA and nucleotide substrates (dNTPs) were at concentrations of 20 nM and 6 µM, respectively, in the assay. Pf-apPOL was incubated in the reaction buffer with dNTPs and the compound of interest (10 µM, in the assay) at 25 °C for 10 min. The DNA substrate was then added and the reaction was allowed to proceed for 90 min at 25 °C.
In the above, Min is the average of fluorescence emission of the negative controls (substrate only), Max the average fluorescence emission from the positive controls (enzyme + substrate), and Test the emission from the assays in the presence of compounds (enzyme + compound + substrates). Dose-response confirmation assays were performed under similar conditions as the primary screen, but monitoring fluorescence at 10, 90, and 180 min. Tested concentrations of compounds were 2.5, 10, 20, 40, and 80 µM. The IC50 of each compound was determined using Equation (2): (2) […] Vmax/(1+ (I/IC50)^n)
We tested the ability of the 102 compounds to kill P. falciparum parasites cultured in human red blood cells. Due to the number of compounds, we used a single inhibitor concentration of 20 µM and performed experiments in triplicate. These single-dose assays identified 9 compounds that inhibited parasite growth by more than 50%. These compounds were then tested in a dose-response format against chloroquine resistant P. falciparum parasites (Dd2) and the resulting data were fit to a sigmoidal growth inhibition curve to determine EC50 values (Figure 5, Table 2). […] Inhibition of Pb-apPOL is a desired feature because it is likely that future in vivo studies will be performed in the mouse model for Malaria. […] The in vitro polymerase assays identified 5 compounds that were potent inhibitors of all three apicoplast polymerases and a single compound that inhibited Pf-apPOL and Bb-apPOL but not Pb-apPOL (Table 2). Finally, to determine if the compounds were killing the parasites solely via apicoplast disruption, the dose-response curves were also performed with 1 mM isopentylpyrophosphate (IPP) in the growth media (Table 2). […] At this time, it is unclear what the non-apicoplast target(s) may be. One intriguing possibility is that these compounds may be targeting both the apicoplast and the mitochondrial DNA polymerases. […]

[4] = biological target: Babesia bovis apicoplast DNA polymerase (Bb-apPOL); experiment: In vitro DNA polymerase inhibition assay, Bb-apPOL; assay type: biochemical; settings: Table 2
Description: as §2, §1

[5] = read-out: IC50 Pf-apPOL, Table 2
[6] = supplemental file 2, sheet IC50 nontoxic compounds, Pf-apPOL
[7] = Dd2 parasites in human RBCs, dose-response, no IPP, read-out: EC50
[8] = Dd2 parasites, 1 mM isopentylpyrophosphate (IPP) in the growth media, read-out: EC50 + IPP

Chain of P. falciparum apicoplast DNA polymerase (Pf-apPOL) (Q8ILY1 entry or part of it): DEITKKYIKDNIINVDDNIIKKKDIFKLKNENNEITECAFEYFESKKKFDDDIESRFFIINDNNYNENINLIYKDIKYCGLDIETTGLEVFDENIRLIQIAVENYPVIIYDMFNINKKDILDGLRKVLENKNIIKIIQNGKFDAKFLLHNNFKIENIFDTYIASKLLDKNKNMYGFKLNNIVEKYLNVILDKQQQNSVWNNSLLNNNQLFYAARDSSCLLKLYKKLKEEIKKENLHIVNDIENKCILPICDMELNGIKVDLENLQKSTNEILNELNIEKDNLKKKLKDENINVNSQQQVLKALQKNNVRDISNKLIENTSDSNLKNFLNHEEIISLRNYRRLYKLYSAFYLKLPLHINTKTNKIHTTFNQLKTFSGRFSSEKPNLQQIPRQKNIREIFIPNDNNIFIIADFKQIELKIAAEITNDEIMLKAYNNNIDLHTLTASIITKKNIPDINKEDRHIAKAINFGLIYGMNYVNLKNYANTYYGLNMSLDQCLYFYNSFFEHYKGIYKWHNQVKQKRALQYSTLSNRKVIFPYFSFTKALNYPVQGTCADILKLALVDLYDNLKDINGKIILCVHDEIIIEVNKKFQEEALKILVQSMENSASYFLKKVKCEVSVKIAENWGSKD

SMILES	IC50 [1, 5] [µM]	IC50 [1, 6] [µM]	EC50 [2, 7] [µM]	EC50 [2, 8] [µM]	IC50 [3] [µM]	IC50 [4] [µM]
Cn1nc(-c2nnc(-c3ccccc3F)o2)c2c1CCN(C(=O)c1ccccc1Cl)C2 [Molecule 34]	7.2 ± 0.9	7.21	11.3 ± 0.9	10 ± 0.7	–	–
O=[N+]([O-])c1ccc(/C=C/c2ccc3ccccc3n2)o1 [Molecule 21]	8 ± 1	8.41	–	–	9.7 ± 1.6	–
O=[N+]([O-])/C=C/c1ccc(-c2ccc(Br)cc2)o1 [Molecule 31]	15 ± 1	15.8	8.9 ± 0.5	8.7 ± 0.6	–	15 ± 5
O=C1Nc2ccc(I)cc2C1=Cc1cc(Br)c(O)c(Br)c1 [Molecule 27]	15 ± 1	15.6	10 ± 1	9 ± 1	–	–
